Measurements: PubChem BioAssay AID463102 (The Scripps Research Institute Molecular Screening Center, 2010)
The source made the active and inactive calls.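 How the source made its calls: active means target enzyme band signal cut by at least 80% with no off-target protein band also blocked; inactive means weaker inhibition or any off-target band blocked.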

What was measured:
[1] = target: Glutathione S-transferase omega-1 (Homo sapiens) (UniProt P78417); assay: selectivity of GSTO1 blockers across lysate enzymes – cell lysate, MDA-MB-435 proteome, gel ABPP, endogenous enzyme, selectivity assay for GSTO1 inhibitor project, late-stage follow-up (AID 463102); conditions: competitive gel ABPP, SE-Rh probe, stronger effect = higher value
Sequence of Glutathione S-transferase omega-1 (Homo sapiens) (P78417 whole entry, looked up): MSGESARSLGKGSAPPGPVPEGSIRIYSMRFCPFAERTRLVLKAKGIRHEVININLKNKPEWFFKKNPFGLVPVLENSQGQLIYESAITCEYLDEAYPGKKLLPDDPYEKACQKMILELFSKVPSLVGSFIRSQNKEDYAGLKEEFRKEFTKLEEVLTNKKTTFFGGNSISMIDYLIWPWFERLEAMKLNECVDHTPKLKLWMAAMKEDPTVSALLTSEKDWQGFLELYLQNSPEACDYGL

[2] = as above; conditions: competitive gel ABPP, SE-Rh probe, measured here: total off-target bands hit, stronger effect = lower value

inhibition ([1]; GSTO1 inhibition, at 1 µM) [%]	inhibition ([1]; at 0.1 µM)	anti-target hits [2]	SMILES
100	69% (inactive)	1	C#CCNC(=O)C(c1ccc(OC)cc1)N(C(=O)CCl)c1cccc(Cl)c1 (stereo not drawn)
100	71% (inactive)	2	O=C(NC1CCCCC1)C(c1cccnc1)N(C(=O)CCl)c1ccc(F)cc1 (stereo not drawn)
100	85% (inactive)	4	COc1ccc(N(C(=O)CCl)C(C(=O)NCCc2ccccc2)c2cccs2)cc1Cl (stereo not drawn)
90	27% (inactive)	0	COc1ccc(N(CCCNC(=O)C(F)(F)F)C(=O)CCl)cc1
100	51% (inactive)	0	C#CCCCCN(C(=O)CCl)c1ccc([N+](=O)[O-])cc1
92	28% (inactive)	2	O=C(NC1CCCCC1)C(c1cccnc1)N(C(=O)CCl)c1cccc(C(F)(F)F)c1 (stereo not drawn)
100	87%	0	COc1ccc(C(C(=O)NC2CCCCC2)N(C(=O)CCl)c2ccc(Cl)cc2)cc1 (stereo not drawn)
100	57% (inactive)	5	O=C(CCl)N1CCN(S(=O)(=O)c2ccc3ccccc3c2)CC1
62	16% (inactive)	0	CC(=O)NCCCN(C(=O)CCl)c1ccc([N+](=O)[O-])cc1
100	77% (inactive)	4	O=c1[nH]c(CCl)nc2cc(-c3ccc(F)cc3)sc12
100	100% (inactive)	2	O=C(NC1CCCCC1)C(c1cccnc1)N(C(=O)CCl)c1cccc(Cl)c1 (stereo not drawn)
93	38% (inactive)	6	Cc1ccc2c(c1)c1c3n2CCN(C(=O)CCl)C3CCC1 (stereo not drawn)
100	64% (inactive)	0	C#CCNC(=O)C(c1ccc(OC)cc1)N(C(=O)CCl)c1ccc(Cl)cc1 (stereo not drawn)
55	10% (inactive)	0	Cc1ccc(N(CCCNC(=O)C(F)(F)F)C(=O)CCl)cc1
100	45% (inactive)	1	COc1ccc(N(C(=O)CCl)C(C(=O)NC2CCCCC2)c2cccnc2)cc1 (stereo not drawn)
100	81% (inactive)	9	COc1ccc(C(CCN(Cc2ccc(OC)c(OC)c2)C(=O)CCl)c2ccccc2)cc1 (stereo not drawn)
100	98% (inactive)	1	COc1ccc(C(C(=O)NC2CCCCC2)N(C(=O)CCl)c2cccc(Cl)c2)cc1 (stereo not drawn)
89	26% (inactive)	2	Cc1cccc(CN2CCN(C(=O)CCl)CC2)c1

inhibition ([1]; GSTO1 inhibition, at 1 µM) [%]	inhibition ([1]; at 0.1 µM)	anti-target hits [2]	SMILES
93	34% (inactive)	2	O=C(NCCCN(C(=O)CCl)c1ccc([N+](=O)[O-])cc1)c1ccccc1
100	59% (inactive)	0	C#CCCC(=O)NCCCN(C(=O)CCl)c1ccc([N+](=O)[O-])cc1
55	0% (inactive)	1	O=C(NC1CCCCC1)C(c1cccnc1)N(C(=O)CCl)c1ccc(C(F)(F)F)cc1 (stereo not drawn)
94	25% (inactive)	0	O=C(CCl)N(CCCNC(=O)C(F)(F)F)c1ccc(F)cc1
90	29% (inactive)	2	O=C(NCCCN(C(=O)CCl)c1ccc([N+](=O)[O-])cc1)c1ccc(F)cc1
100	67% (inactive)	6	CCCCCCCCCCN(C(=O)CCl)c1ccc([N+](=O)[O-])cc1
100	85%	0	O=C(CCl)N(CCCNC(=O)C(F)(F)F)c1ccc(Cl)cc1
100	90% (inactive)	1	O=C(CCl)N(CCCCCNC(=O)C(F)(F)F)c1ccc([N+](=O)[O-])cc1
100	100%	0	C#CCN(CCCN(C(=O)CCl)c1ccc([N+](=O)[O-])cc1)C(=O)C(F)(F)F
93	28% (inactive)	3	Cc1nn(-c2ccccc2)c(Cl)c1CN(C(=O)CCl)c1ccc(Cl)cc1
100	93% (inactive)	2	O=C(NC1CCCCC1)C(c1cccnc1)N(C(=O)CCl)c1ccc(Cl)c(Cl)c1 (stereo not drawn)
100	48% (inactive)	2	C#CCCCCNC(=O)C(c1cccnc1)N(C(=O)CCl)c1ccc(F)cc1 (stereo not drawn)
100	83% (inactive)	1	C#CCCCCNC(=O)C(c1ccc(OC)cc1)N(C(=O)CCl)c1cccc(Cl)c1 (stereo not drawn)
73	16% (inactive)	0	O=C(CCl)N(CCCNC(=O)C(F)(F)F)c1ccccc1
100	79% (inactive)	2	O=C(NC1CCCCC1)C(c1cccnc1)N(C(=O)CCl)c1ccc(Cl)cc1 (stereo not drawn)
100	99%	0	O=C(CCl)N(CCCCNC(=O)C(F)(F)F)c1ccc([N+](=O)[O-])cc1
100	62% (inactive)	0	O=C(CCl)N(CCCNC(=O)C(F)(F)F)c1cccc(C(F)(F)F)c1
88	19% (inactive)	0	O=S(=O)(c1ccc(Cl)cc1)N1CCC2(CC1)CO2
